Test system: SARS-CoV-2 virus

In the case of `CCC(CC)COC(=O)[C@H](C)N[P@](=O)(OC[C@H]1O[C@@](C#N)(c2ccc3c(N)ncnn23)[C@H](O)[C@@H]1O)Oc1ccccc1` [Remdesivir], the “SI (Selection Index = TC50/IC50)” value is reported as 162.21.

With `O=C(OC[C@H]1O[C@@H](OC(=O)c2cc(O)c(O)c(OC(=O)c3cc(O)c(O)c(O)c3)c2)[C@H](OC(=O)c2cc(O)c(O)c(OC(=O)c3cc(O)c(O)c(O)c3)c2)[C@@H](OC(=O)c2cc(O)c(O)c(OC(=O)c3cc(O)c(O)c(O)c3)c2)[C@@H]1OC(=O)c1cc(O)c(O)c(OC(=O)c2cc(O)c(O)c(O)c2)c1)c1cc(O)c(O)c(OC(=O)c2cc(O)c(O)c(O)c2)c1` [Tannic acid, tannic acid] the “SI (Selection Index = TC50/IC50)” value was 7343.75.

Reference: patent US12064444B2, “Application of tannic acid in preparation of medicament against respiratory viruses” (priority 2020, dated 2024)
